Legend:
NA transporter = test: Inhibition of noradrenalin uptake in synaptosomes; assay type: biochemical
[1] = test system: batrachotoxin (BTX) binding site of the sodium channel; test: Affinity to the batrachotoxin (BTX) binding site of the sodium channel; settings: rat cerebrocortex synaptosomes, [3H]-batrachotoxinin A20 α-benzoate 10 nM; test concentration not given

Structure (SMILES)	Uptake (NA), rat, 10 μM, % inhibition (NA transporter) [%]	BTX Inhibition [1]
COc1cc(C)c(S(=O)(=O)N2CCC3(CC2)NC(=O)C(Cc2ccccc2)N3)c(C)c1C (stereo not shown) [Example 4, 3-Benzyl-8-(4-methoxy-2,3,6-trimethylbenzolsulfonyl)-1,4,8-triazaspiro[4,5]decan-2-one]	34	53
CCOC(=O)CC(C)NC(=S)N1CCC2(CC1)NC(Cc1ccccc1)C(=O)N2C (stereo not shown) [Example 131, Ethyl 3-[(3-benzyl-1-methyl-2-oxo-1,4,8-triazaspiro[4,5]decan-8-carbothioyl)amino]-butyrate]	42	42
COC(=O)c1ccc(CN2C(=O)C(C(C)C)NC23CCN(C(=S)NCC2CCCO2)CC3)cc1 (stereo not shown) [Example 137, Methyl 4-{3-isopropyl-2-oxo-8-[(tetrahydrofuran-2-ylmethyl)thiocarbamoyl]-1,4,8-triazaspiro[4,5]dec-1-ylmethyl}-benzoate]	30	37
CCCCN1C(=O)C(C(C)C)NC12CCN(C(=S)Nc1c(F)c(F)c(F)c(F)c1F)CC2 (stereo not shown) [Example 152, 1-Butyl-3-isopropyl-2-oxo-1,4,8-triazaspiro[4,5]decan-8-thiocarboxylic acid pentafluorobenzolamide-amide]	37	39
COC(=O)c1ccccc1NC(=S)N1CCC2(CC1)NC(CCSC)C(=O)N2Cc1ccccc1C#N (stereo not shown) [Example 153, Methyl 2-{[1-(2-cyanobenzyl)-3-(2-methylsulfanylethyl)-2-oxo-1,4,8-triazaspiro[4,5]decan-8-carbothioyl]-amino}-benzoate]	30	53
COc1ccccc1NC(=S)N1CCC2(CC1)NC(C(C)C)C(=O)N2Cc1ccccc1 (stereo not shown) [Example 155, 1-Benzyl-3-isopropyl-2-oxo-1,4,8-triazaspiro[4,5]decan-8-thiocarboxylic acid (2-methoxy-benzol)amide]	52	32
CC(C)C1NC2(CCN(C(=S)Nc3ccccc3)CC2)N(Cc2ccccc2)C1=O (stereo not shown) [Example 156, 1-Benzyl-3-isopropyl-2-oxo-1,4,8-triazaspiro[4,5]decan-8-thiocarboxylic acid benzolamide]	33	
CC(C)C1NC2(CCN(C(=S)Nc3cc(F)ccc3F)CC2)N(Cc2ccccc2)C1=O (stereo not shown) [Example 157, 1-Benzyl-3-isopropyl-2-oxo-1,4,8-triazaspiro[4,5]decan-8-thiocarboxylic acid (2,5-difluorobenzol)amide]	38	39
C=CCN1C(=O)C(C(C)C)NC12CCN(C(=S)NCc1ccc(F)cc1)CC2 (stereo not shown) [Example 162, 1-Allyl-3-isopropyl-2-oxo-1,4,8-triazaspiro[4,5]decan-8-thiocarboxylic acid 4-fluorobenzylamide]	26	
CCOC(=O)NC(=S)N1CCC2(CC1)NC(C(C)C)C(=O)N2Cc1ccc(C(=O)OC)cc1 (stereo not shown) [Example 167, Methyl 4-(8-ethoxycarbonylaminocarbothioyl-3-isopropyl-2-oxo-1,4,8-triazaspiro[4,5]dec-1-ylmethyl)benzoate]	42	
COC(=O)c1ccc(CN2C(=O)C(C(C)C)NC23CCN(C(=O)NC2CCCCC2)CC3)cc1 (stereo not shown) [Example 206, Methyl 4-(8-cyclohexylcarbamoyl-3-isopropyl-2-oxo-1,4,8-triazaspiro[4,5]dec-1-ylmethyl)benzoate]	39	
COC(=O)c1ccc(CN2C(=O)C(C(C)C)NC23CCN(C(=O)Nc2cccc(OC)c2)CC3)cc1 (stereo not shown) [Example 223, Methyl 4-[3-isopropyl-8-(3-methoxy-benzolcarbamoyl)-2-oxo-1,4,8-triazaspiro[4,5]dec-1-ylmethyl]-benzoate]	31	

Source: patent US7560468B2, “Substituted 1,4,8-triazaspiro[4,5]decan-2-one compounds” (Gruenenthal GmbH, priority 2004, dated 2009)
